Results from patent US11866431B2, “Bicyclic compounds” (Vivace Therapeutics, Inc., priority 2018, dated 2024).

test system: 8XTBD luciferase reporter (YAP reporter) in HEK293T cells; assay: YAP Reporter Assay; type: cell-based; conditions: Homo sapiens, HEK-293T; HEK293T cells stably transfected with 8XTBD luciferase reporter and pRLTK; 24-hr incubation; top concentration 3 μM; read-out: Firefly Luciferase IC50
Method in brief: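 Dual-luciferase read-out after 24 h compound exposure at 37° C, 5% CO2; IC50 and maximum inhibition given separately for 8XTBD-firefly and TK-renilla signals. Stable HEK293T reporter cells, 3×10^3/well, received 10-point 1:3 series starting 3 μM final, in quadruplicate.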

| SMILES | IC50 [nM] |
| --- | --- |
| N#C/C=C\CCCNC(=O)c1ccc2c(-c3ccc(C(F)(F)F)cc3)cccc2c1 [Compound 228, N—[(Z)-5-cyanopent-4-enyl]-5-[4-(trifluoromethyl)phenyl]naphthalene-2-carboxamide] | < 100 |
| O=C(NCc1ccncc1)c1ccc2c(-c3ccc(C(F)(F)F)cc3)cccc2c1 [Compound 229, N-(pyridin-4-ylmethyl)-5-(4-(trifluoromethyl)phenyl)-2-naphthamide] | < 100 |
| COC(=O)/C=C/CCNC(=O)c1ccc2c(-c3ccc(C(F)(F)F)cc3)cccc2c1 [Compound 230, methyl (E)-5-[[5-[4-(trifluoromethyl)phenyl]naphthalene-2-carbonyl]amino]pent-2-enoate] | 100 to 1000 |
| N#CC(O)CCCCNC(=O)c1ccc2c(-c3ccc(C(F)(F)F)cc3)cccc2c1 (stereo not shown) [Compound 231, N-(5-cyano-5-hydroxy-pentyl)-5-[4-(trifluoromethyl)phenyl]naphthalene-2-carboxamide] | 100 to 1000 |
| COc1cc(-c2ccc(C(F)(F)F)cc2F)c2ncc(C(=O)N[C@@H](C)c3ccccn3)cc2c1 [Compound 232, (S)-8-(2-Fluoro-4-(trifluoromethyl)phenyl)-6-methoxy-N-(1-(pyridin-2-yl)ethyl)quinoline-3-carboxamide] | < 100 |
| COc1cc(-c2ccc(C(F)(F)F)cc2F)c2ncc(C(=O)N[C@H](C)CO)cc2c1 [Compound 233, (R)-8-(2-Fluoro-4-(trifluoromethyl)phenyl)-N-(1-hydroxypropan-2-yl)-6-methoxyquinoline-3-carboxamide] | < 100 |
| COCCC(=O)Nc1cccc(CNC(=O)c2ccc3c(-c4ccc(C(F)(F)F)cc4)cccc3c2)c1 [Compound 234, N-(3-(3-methoxypropanamido)benzyl)-5-(4-(trifluoromethyl)phenyl)-2-naphthamide] | < 100 |
| Nc1cccc(CNC(=O)c2ccc3c(-c4ccc(C(F)(F)F)cc4)cccc3c2)c1 [Compound 235, N-(3-aminobenzyl)-5-(4-(trifluoromethyl)phenyl)-2-naphthamide] | < 100 |
| CC(C)(C)OC(=O)Nc1cccc(CNC(=O)c2ccc3c(-c4ccc(C(F)(F)F)cc4)cccc3c2)c1 [Compound 236, Tert-Butyl (3-((5-(4-(trifluoromethyl)phenyl)-2-naphthamido)methyl)phenyl)carbamate] | 100 to 1000 |
| CC(=O)Nc1cccc(CNC(=O)c2ccc3c(-c4ccc(C(F)(F)F)cc4)cccc3c2)c1 [Compound 237, N-(3-acetamidobenzyl)-5-(4-(trifluoromethyl)phenyl)-2-naphthamide] | < 100 |
| O=C(NCCCCCO)c1ccc2c(-c3ccc(C(F)(F)F)cc3)cccc2c1 [Compound 238, N-(5-hydroxypentyl)-5-[4-(trifluoromethyl)phenyl]naphthalene-2-carboxamide] | 100 to 1000 |
| O=C(NCc1ccccn1)c1ccc2c(-c3ccc(C(F)(F)F)cc3)cccc2c1 [Compound 239, N-(pyridin-2-ylmethyl)-5-(4-(trifluoromethyl)phenyl)-2-naphthamide] | < 100 |
| COc1cccc(CNC(=O)c2ccc3c(-c4ccc(C(F)(F)F)cc4)cccc3c2)c1 [Compound 240, N-(3-methoxybenzyl)-5-(4-(trifluoromethyl)phenyl)-2-naphthamide] | 100 to 1000 |
| O=C(NCc1ccccc1)c1ccc2c(-c3ccc(C(F)(F)F)cc3)cccc2c1 [Compound 241, N-benzyl-5-(4-(trifluoromethyl)phenyl)-2-naphthamide] | < 100 |
| C[C@@H](NC(=O)c1ccc2c(-c3ccc(C(F)(F)F)cc3)cccc2c1)c1ncc[nH]1 [Compound 242, (R)—N-(1-(1H-imidazol-2-yl)ethyl)-5-(4-(trifluoromethyl)phenyl)-2-naphthamide] | 100 to 1000 |
| C[C@H](NC(=O)c1ccc2c(-c3ccc(C(F)(F)F)cc3)cccc2c1)c1ncc[nH]1 [Compound 243, (S)—N-(1-(1H-imidazol-2-yl)ethyl)-5-(4-(trifluoromethyl)phenyl)-2-naphthamide] | 100 to 1000 |
| C[C@H](NC(=O)c1ccc2c(-c3ccc(C(F)(F)F)cc3)cccc2n1)c1ccccn1 [Compound 244, (S)—N-(1-(Pyridin-2-yl)ethyl)-5-(4-(trifluoromethyl)phenyl)quinoline-2-carboxamide] | < 100 |
| COC[C@H](C)NC(=O)c1ccc2c(-c3ccc(C(F)(F)F)cc3)cccc2n1 [Compound 246, (S)—N-(1-Methoxypropan-2-yl)-5-(4-(trifluoromethyl)phenyl)quinoline-2-carboxamide] | 100 to 1000 |
| C[C@H](CO)NC(=O)c1ccc2c(-c3ccc(C(F)(F)F)cc3)cccc2n1 [Compound 247, (R)—N-(1-Hydroxypropan-2-yl)-5-(4-(trifluoromethyl)phenyl)quinoline-2-carboxamide] | 100 to 1000 |
| CC(C)NC(=O)c1ccc2c(-c3ccc(C(F)(F)F)cc3)cccc2n1 [Compound 248, N-isopropyl-5-(4-(trifluoromethyl)phenyl)quinoline-2-carboxamide] | 100 to 1000 |

| SMILES | IC50 [nM] |
| --- | --- |
| O=C(NCCCCCl)c1ccc2c(-c3ccc(C(F)(F)F)cc3)cccc2c1 [Compound 249, N-(4-chlorobutyl)-5-(4-(trifluoromethyl)phenyl)-2-naphthamide] | 100 to 1000 |
| O=C(NC1(c2ccccn2)CC1)c1ccc2c(-c3ccc(C(F)(F)F)cc3)cccc2c1 [Compound 250, N-(1-(pyridin-2-yl)cyclopropyl)-5-(4-(trifluoromethyl)phenyl)-2-naphthamide] | 100 to 1000 |
| C[C@H](NC(=O)c1ccc2c(-c3ccc(C(F)(F)F)cc3)cccc2c1)C1CCC1 [Compound 251, (S)—N-(1-cyclobutylethyl)-5-(4-(trifluoromethyl)phenyl)-2-naphthamide] | 100 to 1000 |
| C[C@@H](NC(=O)c1ccc2c(-c3ccc(C(F)(F)F)cc3)cccc2c1)C1CCC1 [Compound 252, (R)—N-(1-cyclobutylethyl)-5-(4-(trifluoromethyl)phenyl)-2-naphthamide] | 100 to 1000 |
| C[C@H](NC(=O)c1ccc2c(-c3ccc(C(F)(F)F)cc3)cccc2c1)c1nccn1C [Compound 253, (S)—N-(1-(1-methyl-1H-imidazol-2-yl)ethyl)-5-(4-(trifluoromethyl)phenyl)-2-naphthamide] | 1000 to 3000 |
| C[C@@H](NC(=O)c1ccc2c(-c3ccc(C(F)(F)F)cc3)cccc2c1)c1nccn1C [Compound 254, (R)—N-(1-(1-methyl-1H-imidazol-2-yl)ethyl)-5-(4-(trifluoromethyl)phenyl)-2-naphthamide] | 100 to 1000 |
| O=C(NCCCCO)c1ccc2c(-c3ccc(C(F)(F)F)cc3)cccc2c1 [Compound 255, N-(4-hydroxybutyl)-5-(4-(trifluoromethyl)phenyl)-2-naphthamide] | 100 to 1000 |
| [N-]=[N+]=NCCCNC(=O)c1ccc2c(-c3ccc(C(F)(F)F)cc3)cccc2c1 [Compound 256, N-(3-azidopropyl)-5-(4-(trifluoromethyl)phenyl)-2-naphthamide] | 100 to 1000 |
| O=C(NC1(CO)CC1)c1ccc2c(-c3ccc(C(F)(F)F)cc3)cccc2c1 [Compound 257, N-(1-(hydroxymethyl)cyclopropyl)-5-(4-(trifluoromethyl)phenyl)-2-naphthamide] | < 100 |
| C[C@@H](NC(=O)c1ccc2c(-c3ccc(C(F)(F)F)cc3)cccc2c1)C(N)=O [Compound 258, (R)—N-(1-amino-1-oxopropan-2-yl)-5-(4-(trifluoromethyl)phenyl)-2-naphthamide] | 100 to 1000 |
| C[C@H](NC(=O)c1ccc2c(-c3ccc(C(F)(F)F)cc3)cccc2c1)C(N)=O [Compound 259, (S)—N-(1-amino-1-oxopropan-2-yl)-5-(4-(trifluoromethyl)phenyl)-2-naphthamide] | 100 to 1000 |
| O=C(NC(CO)c1ccccn1)c1cnc2c(-c3ccc(C(F)(F)F)cc3)cccc2c1 (stereo not shown) [Compound 260, N-[2-hydroxy-1-(2-pyridyl)ethyl]-8-[4-(trifluoromethyl)phenyl]quinoline-3-carboxamide] | < 100 |
| [N-]=[N+]=NCCNC(=O)c1ccc2c(-c3ccc(C(F)(F)F)cc3)cccc2c1 [Compound 261, N-(2-azidoethyl)-5-(4-(trifluoromethyl)phenyl)-2-naphthamide] | < 100 |
| CC(C)(NC(=O)c1ccc2c(-c3ccc(C(F)(F)F)cc3)cccc2c1)c1ccccn1 [Compound 262, N-(2-(pyridin-2-yl)propan-2-yl)-5-(4-(trifluoromethyl)phenyl)-2-naphthamide] | 100 to 1000 |
| CC(C)(CO)NC(=O)c1ccc2c(-c3ccc(C(F)(F)F)cc3)cccc2c1 [Compound 263, N-(1-hydroxy-2-methylpropan-2-yl)-5-(4-(trifluoromethyl)phenyl)-2-naphthamide] | 100 to 1000 |
| CC(C)(C)NC(=O)c1ccc2c(-c3ccc(C(F)(F)F)cc3)cccc2c1 [Compound 264, N-(tert-butyl)-5-(4-(trifluoromethyl)phenyl)-2-naphthamide] | 100 to 1000 |
| O=C(NCCCCl)c1ccc2c(-c3ccc(C(F)(F)F)cc3)cccc2c1 [Compound 265, N-(3-chloropropyl)-5-(4-(trifluoromethyl)phenyl)-2-naphthamide] | 100 to 1000 |
| C[C@H](NC(=O)c1cnc2c(-c3ccc(C(F)(F)F)cc3)cccc2n1)c1ccccn1 [Compound 266, (S)—N-(1-(pyridin-2-yl)ethyl)-5-(4-(trifluoromethyl)phenyl)quinoxaline-2-carboxamide] | 100 to 1000 |
| C[C@H](CO)NC(=O)c1cnc2c(-c3ccc(C(F)(F)F)cc3)cccc2n1 [Compound 267, (R)—N-(1-hydroxypropan-2-yl)-5-(4-(trifluoromethyl)phenyl)quinoxaline-2-carboxamide] | 100 to 1000 |
| CC(C)NC(=O)c1cnc2c(-c3ccc(C(F)(F)F)cc3)cccc2n1 [Compound 268, N-Isopropyl-5-(4-(trifluoromethyl)phenyl)quinoxaline-2-carboxamide] | 100 to 1000 |
